Measured values: patent publication US8552013B2, “Heterocyclic compounds based on N6-substituted adenine, methods of their preparation, their use for preparation of drugs, cosmetic preparations and growth regulators, pharmaceutical preparations, cosmetic preparations and growth regulators containing these compounds” (USTAV Experimentalni Botaniky Akademie Ved Ceske Republiky, priority 2001, dated 2013)

Tests used:
Human lymphocytes = test: Immunosuppressive activity, 3H-thymidine incorporation in concanavalin A activated lymphocytes; format: cell-based; conditions: Lymphocyte, 72 hours, [3H]-TdR, read-out: Human lymphocytes ED50
Description: One of the most important parameters of specific cellular immunity is proliferative response of lymphocytes to antigens or polyclonal mitogens. The majority of normal mammalian peripheral lymphocytes comprise resting cells. Antigens or nonspecific polyclonal mitogens have the capacity to activate lymphoid cells and this is accompanied by dramatic changes of intracellular metabolism (mitochondrial activity, protein synthesis, nucleic acids synthesis, formation of blastic cells and cellular proliferation). […] Variety of in vitro assays was developed to measure proliferative response of lymphocytes. The most commonly used is ^3H-thymidine incorporation method.
During cell proliferation, DNA has to be replicated before the cell is divided into two daughter cells. This close association between cell doublings and DNA synthesis is very attractive for assessing cell proliferation. If labelled DNA precursors are added to the cell culture, cells that are about to divide incorporate the labelled nucleotide into their DNA. Traditionally, those assays usually involve the use of radiolabelled nucleosides, particularly tritiated thymidine ([^3H]-TdR). The amount of [^3H]-TdR incorporated into the cellular DNA is quantified by liquid scintillation counting.
Human heparinized peripheral blood was obtained from healthy volunteers by cubital vein punction. The blood was diluted in PBS (1:3) and mononuclear cells were separated by centrifugation in Ficoll-Hypaque density gradient (Pharmacia, 1.077 g/ml) at 2200 rpm for 30 minutes. Following centrifugation, lymphocytes were washed in PBS and resuspended in cell culture medium (RMPI 1640, 2 mM glutamine, 100 U/ml penicillin, 100 μg/ml streptomycin, 10% fetal calf serum and sodium bicarbonate).
The cells were diluted at target density of 1,100,000 cells/ml were added by pipette (180 μl) into 96/well microtiter plates. Four-fold dilutions of the intended test concentration were added at time zero in 20 μl aliquots to the microtiter plate wells. Usually, test compound was evaluated at six 4-fold dilutions. In routine testing, the highest well concentration was 266.7 μM. All drug concentrations were examined in duplicates. All wells with exception of unstimulated controls were activated with 50 μl of concanavalin A (25 μg/ml). Incubations of cells with test compounds lasted for 72 hours at 37° C., in 5% CO2 atmosphere and 100% humidity. At the end of incubation period, the cells were assayed by using the [^3H]-TdR:
Cell cultures were incubated with 0.5 μCi (20 μl of stock solution 500 μCi/ml) per well for 6 hours at 37° C. and 5% CO2. The automated cell harvester was used to lyse cells in water and adsorb the DNA onto glass-fiber filters in the format of microtiter plate. The DNA incorporated [^3H]-TdR was retained on the filter while unincorporated material passes through. The filters were dried at room temperature overnight, sealed into a sample bag with 10-12 ml of scintillant. The amount of [^3H]-TdR present in each filter (in cpm) was determined by scintillation counting in a Betaplate liquid scintillation counter. The effective dose of immunosuppressant (ED) was calculated using the following equation: ED=(CCPMdrug exposed well/mean CCPMcontrol wells)×100%. The ED50 value, the drug concentration inhibiting proliferation of 50% of lymphocytes, was calculated from the obtained dose response curves.

[1] = tested on: human diploid fibroblasts (HCA cells); test: Senescence, beta-galactosidase staining of human diploid fibroblasts; format: cell-based; conditions: for SENESCENT CELLS (%) HCA25: passage 25; for SENESCENT CELLS (%) HCA45: passage 45; for SENESCENT CELLS (%) HCA80: passage 80
Procedure: In this example, human diploid fibroblasts (HCA cells of various passage levels: passage 25—designated HCA25; passage 45—designated HCA45; passage 80—designated HCA80) were stained for β-galactosidase activity. The medium used for cell cultivation was removed, the cells were washed twice in […], and fixed in 2-3 ml of fixing solution comprised of a 2% formaldehyde and 0.2% glutaraldehyde in PBS. The cells were incubated at room temperature for 5 minutes, then washed twice with PBS. The cells were subsequently incubated at 37° C. (without CO2) for 1 to 16 hours in 2-3 ml of a solution comprising potassium ferricyanide (5 mM), potassium ferrocyanide (5 mM), MgCl2 (2 mM), X-gal (5-bromo-4-chloro-3-indolyl-β-D-galactopyranoside) (1 mg/ml), in citric/phosphate buffer, pH 6.0). […] In this experiment, senescent cells, but not other cells were stained blue due to the action of β-galactosidase on the substrate (FIG. 4).

[2] = tested on: promyelocytic HL-60 leukemia; test: Calcein AM cytotoxicity, HL60; format: cell-based, human; conditions: Homo sapiens, HL-60, 72 h, read-out: IC 50, HL60
Description: (§1) One of the parameters used, as the basis for cytotoxicity assays, is the metabolic activity of viable cells. For example, a microtiter assay, which uses the Calcein AM, is now widely used to quantitate cell proliferation and cytotoxicity. For instance, this assay is used in drug screening programs and in chemosensitivity testing. Because only metabolically active cells cleave Calcein AM, these assays detect viable cells exclusively. The quantity of reduced Calcein AM corresponds to the number of vital cells in the culture.
(§2) The cells were maintained in Nunc/Corning 80 cm^2 plastic tissue culture flasks and cultured in cell culture medium (DMEM with 5 g/l glucose, 2 mM glutamine, 100 U/ml penicillin, 100 μg/ml streptomycin, 10% fetal calf serum and sodium bicarbonate).
(§3) The cell suspensions that were prepared and diluted according to the particular cell type and the expected target cell density (2.500-30.000 cells per well based on cell growth characteristics) were added by pipette (80 μl) into 96/well microtiter plates. Inoculates were allowed a pre-incubation period of 24 hours at 37° C. and 5% CO2 for stabilisation. Four-fold dilutions of the intended test concentration were added at time zero in 20 μl aliquots to the microtiter plate wells. Usually, test compound was evaluated at six 4-fold dilutions. […] All drug concentrations were examined in duplicates. Incubations of cells with the test compounds lasted for 72 hours at 37° C., in 5% CO2 atmosphere and 100% humidity. At the end of incubation period, the cells were assayed by using the Calcein AM. Ten microliters of the stock solution were pipetted into each well and incubated further for 1 hours. Fluorescence (FD) was measured with the Labsystem FIA Reader Fluoroscan Ascent (UK).

B16-F0 melanoma = test: Calcein AM cytotoxicity, B16-F0; format: cell-based; conditions: Mus musculus, B16F0, 72 h, read-out: IC 50, B16-F0
Description: as §1
(§4) Human T-lymphoblastic leukemia cell line CEM; promyelocytic HL-60 and monocytic U937 leukemias; breast carcinoma cell lines MCF-7, BT549, MDA-MB-231; glioblastoma U87MG cells; cervical carcinoma cells HELA; sarcoma cells U2OS and Saos2; hepatocellular carcinoma HepG2; mouse fibroblasts NIH3T3; mouse immortalized bone marrow macrophages B2.4 and B10A.4; P388D1 and L1210 leukemia; B16 and B16F10 melanomas were used for routine screening of compounds. The cells were maintained in Nunc/Corning 80 cm^2 plastic tissue culture flasks and cultured in cell culture medium (DMEM with 5 g/l glucose, 2 mM glutamine, 100 U/ml penicillin, 100 μg/ml streptomycin, 10% fetal calf serum and sodium bicarbonate).
(§5) The cell suspensions that were prepared and diluted according to the particular cell type and the expected target cell density (2.500-30.000 cells per well based on cell growth characteristics) were added by pipette (80 μl) into 96/well microtiter plates. Inoculates were allowed a pre-incubation period of 24 hours at 37° C. and 5% CO2 for stabilisation. Four-fold dilutions of the intended test concentration were added at time zero in 20 μl aliquots to the microtiter plate wells. Usually, test compound was evaluated at six 4-fold dilutions. In routine testing, the highest well concentration was […], but it can be the matter of change dependent on the agent. All drug concentrations were examined in duplicates. Incubations of cells with the test compounds lasted for 72 hours at 37° C., in 5% CO2 atmosphere and 100% humidity. At the end of incubation period, the cells were assayed by using the Calcein AM. Ten microliters of the stock solution were pipetted into each well and incubated further for 1 hours. Fluorescence (FD) was measured with the Labsystem FIA Reader Fluoroscan Ascent (UK). The tumour cell survival (GI50) was calculated using the following equitation: TCS═(FDdrug exposed well/mean FDcontrol wells)×100%. The GI50 value, the drug concentration lethal to 50% of the tumour cells, was calculated from the obtained dose response curves (FIG. 1).

[3] = tested on: Triticum aestivum cv. Hereward leaf tips; test: Retention of chlorophyll in excised wheat leaf tips; format: in vivo; conditions: chlorophyll retention at the concentration with highest activity
Outline: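 Tips of first leaves from 7-day wheat (cv. Hereward) seedlings kept on compound solutions (10^−8 to 10^−4 M, from DMSO stock) for 96 h in the dark at 25 °C. Chlorophyll extracted in 80% ethanol at 80 °C and read at 665 nm. Activity at the best concentration expressed relative to 10^−4 M BAP (100%), five replicates.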

[4] = tested on: Amaranthus caudatus cotyledon/hypocotyl explants; test: Amaranthus bioassay, betacyanin content; format: in vivo; conditions: betacyanin content at the concentration with highest activity
[5] = tested on: tobacco callus Nicotiana tabacum L. cv. Wisconsin 38; test: Cytokinin-dependent tobacco callus growth; format: cell-based; conditions: fresh callus weight at the concentration with highest activity
[6] = tested on: T-lymphoblastic leukemia cell line CEM; test: Calcein AM cytotoxicity, CEM; format: cell-based, human
Description: as §1, §2, §3

[7] = tested on: breast carcinoma cell line MCF-7; test: Calcein AM cytotoxicity, MCF7; format: cell-based, human; conditions: Homo sapiens, MCF7, 72 h, read-out: IC 50, MCF7
Description: as §1, §2, §3

K-562 = test: Calcein AM cytotoxicity, K-562; format: cell-based; conditions: Homo sapiens, K562, 72 h, read-out: IC 50, K-562
Description: as §1, §2, §3

HOS = test: Calcein AM cytotoxicity, HOS; format: cell-based; conditions: Homo sapiens, HOS, 72 h
Description: as §1, §4, §5

| Structure (SMILES) | EC50 (Human lymphocytes) [µM] | SENESCENT CELLS (%) HCA25 [1] [%] | SENESCENT CELLS (%) HCA45 [1] [%] | SENESCENT CELLS (%) HCA80 [1] [%] | IC50 (B16-F0 melanoma) [µM] | Activity (%) [10^−4 mol · l^−1 BAP = 100%] [3] | activity (%) [10^−5 mol · l^−1 BAP = 100%] [4] | Activity (%) [10^−4 mol · l^−1 BAP = 100%] [5] | further results |
| --- | --- | --- | --- | --- | --- | --- | --- | --- | --- |
| COc1ccc(CNc2ncnc3nc[nH]c23)c(O)c1 [2-hydroxy-4-methoxybenzylamino, 6-(2-hydroxy-4-methoxybenzylamino)purine] | 1.8 | – | – | – | – | – | – | – | – |
| Brc1ccc(Nc2ncnc3nc[nH]c23)cc1 [4-bromoanilino, 6-(4-bromoanilino)purine] | 4.7 | 5 | 3 | 25 | – | – | – | – | – |
| Clc1ccc(Nc2ncnc3nc[nH]c23)cc1 [4-chloroanilino, 6-(4-chloroanilino)purine] | 6.2 | 5 | 5 | 26 | – | – | – | – | – |
| Fc1ccc(CNc2ncnc3nc[nH]c23)cc1Cl [6-(3-chloro-4-fluorobenzylamino)purine] | – | – | – | – | > 167 | 141 (±20) % | 91 (±7) % | 90 (±1) % | IC50 [2]: > 167 µM; IC50 ([6]; 72 hours, listed as 3Cl4F BAP): 95.8 µM; IC50 ([6]; Homo sapiens, 72 h): 135 µM; IC50 [7]: > 167 µM; IC50 (K-562): > 167 µM |
| Cc1cccc(CNc2ncnc3nc[nH]c23)c1 [6-(3-methylbenzylamino)purine] | – | – | – | – | 164 | 111 (±16) % | 84 (±14) % | 79 (±5) % | IC50 [2]: > 167 µM; IC50 ([6]; Homo sapiens, 72 h): > 167 µM; IC50 [7]: 102 µM; IC50 (K-562): > 167 µM |
| COc1ccc(CNc2ncnc3nc[nH]c23)cc1 [6-(4-methoxybenzylamino)purine] | – | – | – | – | 84.7 | 79 (±6) % | 23 (±2) % | 39 (±17) % | IC50 (HOS): > 167 µM |

Continued, in another order:

| EC50 (Human lymphocytes) [µM] | Structure (SMILES) | SENESCENT CELLS (%) HCA25 [1] [%] | SENESCENT CELLS (%) HCA45 [1] [%] | SENESCENT CELLS (%) HCA80 [1] [%] | IC50 (B16-F0 melanoma) [µM] | Activity (%) [10^−4 mol · l^−1 BAP = 100%] [3] | activity (%) [10^−5 mol · l^−1 BAP = 100%] [4] | Activity (%) [10^−4 mol · l^−1 BAP = 100%] [5] | further results |
| --- | --- | --- | --- | --- | --- | --- | --- | --- | --- |
| 8.3 | Nc1cc(Nc2ncnc3nc[nH]c23)ccc1Cl [3-amino-4-chloroanilino, 6-(3-amino-4-chloroanilino)purine] | 4 | 6 | 22 | – | – | – | – | – |
| 12 | Nc1ccc(Nc2ncnc3nc[nH]c23)cc1Cl [3-chloro-4-aminoanilino, 6-(3-chloro-4-aminoanilino)purine] | 5 | 5 | 24 | – | – | – | – | – |
| 12.4 | Nc1cc(Cl)cc(Nc2ncnc3nc[nH]c23)c1 [3-chloro-5-aminoanilino, 6-(3-chloro-5-aminoanilino)purine] | 3 | 6 | 24 | – | – | – | – | – |
| 7.2 | Clc1cccc(Nc2ncnc3nc[nH]c23)c1 [3-chloroanilino, 6-(3-chloroanilino)purine] | 4 | 5 | 25 | – | – | – | – | – |
